What all share (assay type): cell-based, mouse
Assay [1] has as its system Th17 differentiation of CD4+ CD25− T cells. Nature of the assay: Th17 differentiation (IL-17+ IFNγ− cells) of T cells activated with TGFβ plus IL-6. Here is the method: Low doses of halofuginone (HF) were tested to determine the ability of HF to enhance Treg differentiation, while suppressing Th17 differentiation. Nave. CD4+ T cells (CD4+ CD25−) were isolated from the spleen and peripheral lymph nodes of C57B/6 mice. T cells were then activated using anti-CD3 (0.3 μg/ml) and anti-CD28 (0.5 μg/ml) antibodies either in media alone (row 1, 4), TGFβ alone (3 ng/ml—row 2, 5) or TGFβ (3 ng/ml) plus IL-6 (30 ng/ml) (row 3, 6). […] T cells were cultured for 3 days and CD25 and Foxp3 expression (Treg marker genes) was determine by FACS staining and flow cytometric analyses. Simultaneously, T cells were harvested and re-stimulated for 4 hours using phorbol myristic acetate (PMA; 10 nM), Ionomycin (1 μM) and cytokine secretion was prevented using brefeldin A (20 μg/ml). Following stimulation, the production of IL-17 and IFNγ were determined by intracellular staining and analyzed via flow cytometry.
(§1) The dose-response of HF on CD4+ T cell proliferation, activation (i.e. CD25 upregulation) and differentiation to Th1, Th2 and Th17 lineages were evaluated. Purified murine naïve CD4+ CD25− T cells were activated using anti-CD3 (0.3 μg/ml) and anti-CD28 (0.5 μg/ml) antibodies and varying amounts of HF was added to each T cell culture condition (1.25 nM-40 nM). CD4+ T cell proliferation was monitored by CFSE dilution on day 3-post activation and CD25 expression was evaluated by FACS staining 2 days after activation. For T cell differentiation experiments, naïve T cells were activated as above in the presence of Th1 (IL-12 (20 ng/ml) plus anti-IL-4 (10 μg/ml)), Th2 (IL-4 (50 ng/ml) plus anti-IFNγ (0.5 mg/ml)) or Th17 (TGFβ (3 ng/ml) plus IL-6 (30 ng/ml)) polarizing conditions plus titrating amounts of HF (1.25 nM-40 nM) or MAZ1310 (40 nM). The percentage of Th17 cells, (IL-17^+ IFNγ^−) was evaluated on day 3 following activation, whereas the abundance of Th1 cells (IFNγ^+ IL-4) and Th2 cells (IL-4^+ IFNγ^−) was determined 5 days following activation. All cytokine expression was determined by intracellular staining following PMA+Ionomycin+Brefeldin A re-stimulation and all data was normalized to control (MAZ1310)-treated cells. […] Biol., vol. 80:1-8 (2006).
(§2) Cytokines, antibodies and T cell culture: Purified CD4^+ CD25^− T cells were activated in vitro as previously described (I. M. Djuretic et al., Nat Immunol 8, 145 (2007)) using 0.3 μg/ml hamster anti-mouse CD3 (clone 145-2C11) (ATCC—Manassas, Va.) and 0.5 μg/ml hamster anti-mouse CD28 (BD Pharmingen, San Jose, Calif.). Activated cell cultures were differentiated using the following combinations of cytokines and antibodies: iTreg=recombinant human TGFβ1 (3 ng/ml; R&D systems, Minneapolis, Minn.), Th17βTGFβ1 (3 ng/ml) plus recombinant mouse IL-6 (30 ng/ml, R&D systems). Th1 and Th2 differentiation was performed as previously described. (I. M. Djuretic et al., Nat Immunol 8, 145 (2007)). Human IL-2 supernatant (National Cancer Institute) was used in culture at 0.01 U/ml and was added at 48 hours-post activation when T cells were split into tissue culture wells lacking CD3 and CD28 antibodies, with the exception of Th17 cultures that were maintained in the absence of IL-2. All reagents were added at the time of T cell activation and again at 48-hours post activation unless indicated otherwise. For some experiments, purified CD4^+ CD25^− T cells, CD8^+ T cells or B cells were labeled with 1 μM CFSE (Invitrogen) prior to activation in accordance with manufacturers instructions.
Detection of cytokine production: Cytokines secreted into media supernatant were measured using the mouse Th1/Th2 cytometric bead array (CBA, BD Pharmingen) in accordance with manufacturers instructions.

Assay [2] concerns TGFβ-induced Smad phosphorylation. Nature of the assay: TGFβ signaling in T and B cells (Smad phosphorylation, lymphocyte responses to TGFβ). The conditions noted are these: HF 2.5-40 nM or 10 nM; SB-431542 10 μM. The protocol:
T cells were then activated in the presence or absence of 3 ng/ml. TGFβ. Whole cell extracts were prepared after 1 hour of stimulation and western blot analyses were performed using the indicated antibodies.
Western blotting: Whole cell lysates were generated from T cells activated for the indicated times. For STAT3 and Smad2/3 western blots cells were harvested, washed in PBS and lysed in 50 mM Tris, pH 7.4, 0.1% SDS, 1% Triton-X100, 140 mM NaCl, 1 mM EDTA, 1 mM EGTA supplemented with protease inhibitors tablets (Roche-Germany), 1 mM NaF and 1 mM Na3VO4. For eIF2α and ATF4 western blots, cells were harvested as above and lysed in 50 mM Tris, pH 7.4, 2% SDS, 20% glycerol and 2 mM EDTA supplemented with protease and phosphatase inhibitors as above. All lysates were cleared via centrifugation and 15-30 μg of protein was resolved by SDS-PAGE. Protein was transferred to nitrocellulose membranes, blocked and blotted using specific antibodies. Antibodies used for western blot analysis were anti-phospho-Smad2, anti-STAT3 (pY705), anti-STAT3, anti-eIF2α^pS51, anti-eIF2α, anti-GCN2^pT898, anti-GCN2 (all from cell signaling technology, Danvers, Mass.). Anti-ATF4/CREB2 and anti-β-actin were purchased from Santa Cruz biotechnology (Santa Cruz, Calif.). […]

A further assay has as its system CD4+ CD25− T cells. Nature of the assay: CD4+ T cell proliferation, CD25 upregulation, cytokine production and Th1/Th2/iTreg differentiation. The conditions noted are these: titrating concentrations of tunicamycin. Here is the method:
as §1, §2
Detection of cytokine production: Cytokines secreted into media supernatant were measured using the mouse Th1/Th2 cytometric bead array (CBA, BD Pharmingen) in accordance with manufacturers instructions. […]

For `N[C@H](CO)Cc1c[nH]c2ccccc12` [L-tryptophanol], the “effect of L-tryptophanol on IL-17 production, in words” value in assay [1] (0.2 mM in complete medium, TGFβ plus IL-6) is recorded as “impaired IL-17 production”.
`CC(C)(C)OC(=O)N1CCC[C@H](O)[C@H]1CC(=O)Cn1cnc2cc(Br)c(Cl)cc2c1=O` [MAZ1310]: in assay [1] (used at equal concentrations as HF), the “activity of the HF derivative used as negative control, in words” value is “inactive”.
Turning to `NC(=O)c1ccc(-c2nc(-c3ccc4c(c3)OCO4)c(-c3ccccn3)[nH]2)cc1` [SB-431542], the “effect on TGFβ-induced Smad phosphorylation and other lymphocyte responses to TGFβ, in words” value in assay [2] was “abrogated all responses to TGFβ”.
Turning to tunicamycin, in the assay on CD4+ CD25− T cells, the “effect of tunicamycin on Th1 and Th2 differentiation, in words” value was “preferentially impaired Th1 and Th2 differentiation”. For the same compound, the “effect of tunicamycin on IL-17 expression in T cells, in words” value in assay [1] (titrating concentrations of tunicamycin) is given as “little influence on IL-17 expression”.

Source of the values: patent US20110212100A1, “METHODS FOR MODULATING DEVELOPMENT AND EXPANSION OF IL-17 EXPRESSING CELLS” (priority 2007, published 2011).
